Results published in US20230144385A1, “ETHANOLAMINE FORMULATION FOR TREATING EPITHELIAL OVARIAN CARCINOMA” (METANOI THERAPEUTICS, INC., priority 2020, published 2023).

Columns and labels:
[1] = biological target: FR2 (Homo sapiens, UniProt P14207); conditions: read-out: affinity; cited from earlier work
[2] = biological target: FR1 (Homo sapiens, UniProt P15328); conditions: read-out: affinity; cited from earlier work
[3] = test system: BT-549 breast cancer cells; conditions: BT-549 cells with amplified centrosomes; cited from earlier work
[4] = biological target: KIFC1/microtubule (MT) binary complex (Homo sapiens, UniProt Q9BW19); conditions: ATP-competitive, MT-noncompetitive; cited from earlier work
KIFC1/microtubule (MT) binary complex, sequence (Q9BW19 whole entry, species assumed): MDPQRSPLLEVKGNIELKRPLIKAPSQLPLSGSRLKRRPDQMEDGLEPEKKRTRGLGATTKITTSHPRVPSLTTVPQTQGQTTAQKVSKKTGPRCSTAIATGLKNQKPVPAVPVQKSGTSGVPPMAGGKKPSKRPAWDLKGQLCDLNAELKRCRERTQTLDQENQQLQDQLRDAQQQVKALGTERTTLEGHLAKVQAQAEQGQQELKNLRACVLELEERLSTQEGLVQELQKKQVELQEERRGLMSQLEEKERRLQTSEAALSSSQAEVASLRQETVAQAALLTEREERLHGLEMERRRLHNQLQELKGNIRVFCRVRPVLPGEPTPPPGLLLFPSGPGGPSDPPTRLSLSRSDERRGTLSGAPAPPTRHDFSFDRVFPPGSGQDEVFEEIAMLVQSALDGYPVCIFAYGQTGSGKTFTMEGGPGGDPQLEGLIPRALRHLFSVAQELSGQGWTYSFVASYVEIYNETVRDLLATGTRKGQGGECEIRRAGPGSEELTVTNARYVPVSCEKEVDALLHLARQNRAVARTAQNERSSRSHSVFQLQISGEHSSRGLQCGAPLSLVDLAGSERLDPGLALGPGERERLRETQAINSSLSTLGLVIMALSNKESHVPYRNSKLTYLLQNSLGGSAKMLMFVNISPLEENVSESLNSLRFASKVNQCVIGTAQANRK
KIFC1/microtubule (MT) binary complex, sequence (P68363 whole entry partner, species assumed): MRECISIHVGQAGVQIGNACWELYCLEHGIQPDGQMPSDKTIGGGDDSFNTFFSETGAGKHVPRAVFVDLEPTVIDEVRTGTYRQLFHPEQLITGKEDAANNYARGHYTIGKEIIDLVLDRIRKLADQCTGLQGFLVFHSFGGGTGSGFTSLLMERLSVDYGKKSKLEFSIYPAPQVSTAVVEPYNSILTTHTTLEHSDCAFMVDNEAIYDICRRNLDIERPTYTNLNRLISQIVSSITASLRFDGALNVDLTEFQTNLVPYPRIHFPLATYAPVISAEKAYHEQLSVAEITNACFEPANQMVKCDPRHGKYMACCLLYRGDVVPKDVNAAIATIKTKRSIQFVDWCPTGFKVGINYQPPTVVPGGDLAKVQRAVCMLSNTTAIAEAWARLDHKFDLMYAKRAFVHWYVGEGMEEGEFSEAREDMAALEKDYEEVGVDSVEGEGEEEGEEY
KIFC1/microtubule (MT) binary complex, sequence (Q9BVA1 whole entry partner, species assumed): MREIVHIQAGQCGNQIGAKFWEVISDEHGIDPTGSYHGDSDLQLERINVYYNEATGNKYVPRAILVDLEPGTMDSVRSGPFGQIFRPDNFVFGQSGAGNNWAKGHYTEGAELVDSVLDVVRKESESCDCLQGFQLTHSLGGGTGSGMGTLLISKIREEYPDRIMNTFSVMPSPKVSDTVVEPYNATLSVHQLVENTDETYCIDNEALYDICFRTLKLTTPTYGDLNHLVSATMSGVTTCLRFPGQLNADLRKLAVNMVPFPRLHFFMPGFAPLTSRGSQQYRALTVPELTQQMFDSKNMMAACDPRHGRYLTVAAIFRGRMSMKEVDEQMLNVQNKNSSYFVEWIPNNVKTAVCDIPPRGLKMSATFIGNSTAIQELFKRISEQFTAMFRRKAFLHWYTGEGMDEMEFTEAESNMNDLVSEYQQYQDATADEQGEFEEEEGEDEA

[5] = test system: PC-3 cells; experiment: Oxygen consumption rate in PC-3 cells; assay type: cell-based, human
Experimental: (§1) FIG. 5. (A) Immunoblots of control and Etn-treated cell lysates for HIF1-α. […] Intracellular glucose (Ci) and glutamine (Cii) levels in control and Etn-treated tumors. (D) Effect of choline kinase inhibition on intracellular levels of glucose (Di) and glutamine (Dii) in Etn-treated cells.
(§2) It was hypothesized that PhosE accumulation alters HIF1-a expression/function that impairs glucose/glutamine metabolism leading to metabolic stress, which activates p53-induced cell death. […] OCR was measured in control and Etn-treated cells, and evaluated the glucose and glutamine content in (a) cultured cells and (b) tumors from control and Etn-treated mice. […] Inhibition of CK abrogated the Etn-mediated decrease in cellular glucose and glutamine content (FIGS. 5Di, ii).

[6] = test system: prostate cancer xenograft tumors; experiment: TEM and LC/MS-MS lipidomics of xenograft tumors; assay type: in vivo, mice
Excerpt: FIG. 6. […] Ultra-thin sections were cut on Boeckeler MTx ultramicrotome, counterstained with lead citrate, and examined on a LEO 906e TEM. Mitochondria and accumulated lipid granules are highlighted by red arrows. […] Left panels, scale bar ¼2 […]; right panels, scale bar ¼5 mm. […] Levels of PE (i), PS (ii), PC (iii), and SM (iv) lipids in control and Etn-treated tumors. In the abbreviation of lipid, 1st and 2nd numbers denote the number of carbon atoms and unsaturated bonds present in the lipid, respectively. Lipid amounts were quantified by LC/MS-MS. Values and error bars shown represent mean and SE, respectively.
Lipidomic analyses of tumors from control and Etn-treated groups quantified 402 lipids from various lipid classes such as phosphatidylethanolamine (PE), phosphatidylcholine (PC), phosphatidylserine (PS), lysophospholipids, ceramides, and sphingomyelin (SM). Levels of 21 PE lipids (FIG. 6Bi), and other lipids from the PS (FIG. 6Bii), PC (FIG. […]), and SM (FIG. 6Biv) classes were increased in Etn-treated tumors. Thus, PhosE and phospholipid accumulation downregulates HIF-1α, precipitates a bioenergetics/metabolic crisis, activates p53-mediated signaling and culminates in cell death.

[7] = test system: MDA-MB-468, OVCAR-3, HCT116 and CFPAC cells; experiment: MTT dose-response on cancer cell lines from diverse tissues; assay type: cell-based
Experimental: (§3) PhosE was ineffective in inhibiting proliferation and colony formation of these cell lines up to 100 mg/ml (data not shown).

[8] = test system: prostate cancer xenograft tumors; experiment: Glucose and glutamine content of tumors; assay type: in vivo, mice; conditions: versus control
Experimental: as §1, §2

[9] = test system: cultured cells; experiment: Glucose and glutamine content of cultured cells; assay type: cell-based; conditions: versus control
Experimental: as §1, §2

[10] = test system: PC-3 cells; experiment: Annexin V flow cytometry, PC-3 cells; assay type: cell-based, human
[11] = GI tract stability, Etn compared with PhosE; assay type: in vitro ADME; conditions: compared to PhosE
Excerpt: (§4) ADM E and pharmacological properties of orally-delivered PhosE and Etn [both phosphatidylethanolamine (PE) lipid precursors] were first compared. […] Our mechanistic studies identified CK overexpression—a hallmark of metabolic reprogramming in multiple cancer types—in prostate tumor cells compared to adjacent normal. […] It was hypothesize that an Etn-based formulation can be developed into a safe, selective, pharmacodynamically- and pharmacokinetically-favorable, IND entity that singly or synergistically with the ICI Nivolumab, provides a novel therapeutic option for chemo-resistant EOCs/OCCC.

[12] = test system: prostate cancer xenograft (PC-3-luc tumors); experiment: Prostate cancer xenograft model, oral treatment; assay type: in vivo, mice
Excerpt: FIG. 3. (Ai) Representative bioluminescent images of one animal per group indicating progression of tumor growth over 4 weeks in control and Etn-treated mice. (Aii) Tumor growth monitored (by vernier calipers) over a period of 4 weeks. (Aiii) Weight of tumors from control and Etn-treated mice.
The in vivo efficacy of this formulation was first examined (FIG. 3A). There was an ˜67% reduction in tumor volume (FIG. 3Aii) and ˜55% reduction in tumor weight (FIG. 3Aiii) after 4 weeks of treatment.

[13] = test system: prostate cancer xenografts; experiment: Immunoblots and IHC of xenograft tumors; assay type: in vivo, mice
Excerpt: (§5) FIG. 4. (A) Immunoblots of control and Etn-treated cell lysates for pRb, cdk4, cdk2, p21, c-PARP, Bim, Bcl-2 and β actin. […] (C) Immunoblots of control and Etn-treated tumors lysates for p53, p21, Bax, pBcl-2, c-PARP, Bim, Bid and β actin. (D) Micrographs showing IHC staining of Ki67 and c-PARP in control and Etn-treated prostate cancer xenografts.

[14] = test system: PC-3, DU145, C42B and RWPE-1 cells; experiment: MTT cell survival, prostate cancer lines versus normal prostate cells; assay type: cell-based; conditions: 0.5 and 1 mg/mL, 48 hours, pH 7.4
Experimental: as §3

[15] = test system: PC-3 cells; experiment: MTT cell survival/proliferation assay, PC-3 cells; assay type: cell-based, human; conditions: 48 hours, pH 7.4, compared with PhosE
Experimental: as §3

[16] = test system: HIF1-α; experiment: HIF1-α immunoblot of treated cell lysates; assay type: cell-based; conditions: Etn-treated cells
Experimental: as §1, §2

[17] = test system: PC-3 cells; experiment: Clonogenic survival assay, PC-3 cells; assay type: cell-based, human; conditions: 2 mg/mL, pH 7.4, PC-3 cells
Experimental: as §3

[18] = test system: PC-3 cells; experiment: Intracellular Etn and PhosE levels in treated PC-3 cells; assay type: cell-based, human; conditions: PC-3 cells treated with Etn or PhosE
Excerpt: (§6) FIG. 2. […] (B) Effect of choline kinase inhibition on proliferation of PC-3 cells. (C) Intracellular PhosE level upon Etn treatment.

[19] = test system: CYP; experiment: CYP-related drug-drug interaction liability; assay type: in vitro ADME
Excerpt: as §4

[20] = test system: PC-3 cells; experiment: PC-3 survival on Etn treatment with or without choline kinase inhibitor; assay type: cell-based, human; conditions: with CK inhibition
Excerpt: as §6

[21] = test system: PC-3 cells; experiment: Immunoblots of cell cycle and apoptosis markers in PC-3 cell lysates; assay type: cell-based, human
Excerpt: as §5

[22] = 40 mg/kg Etn, pH=5.0, oral, after 4 weeks

FR1, sequence (P15328 25-234): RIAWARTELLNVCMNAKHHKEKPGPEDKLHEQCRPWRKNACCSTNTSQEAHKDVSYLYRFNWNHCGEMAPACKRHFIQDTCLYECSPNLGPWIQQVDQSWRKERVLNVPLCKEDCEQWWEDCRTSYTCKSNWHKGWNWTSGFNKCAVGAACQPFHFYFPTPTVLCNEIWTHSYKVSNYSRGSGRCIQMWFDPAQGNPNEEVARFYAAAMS
FR2, sequence (P14207 17-230): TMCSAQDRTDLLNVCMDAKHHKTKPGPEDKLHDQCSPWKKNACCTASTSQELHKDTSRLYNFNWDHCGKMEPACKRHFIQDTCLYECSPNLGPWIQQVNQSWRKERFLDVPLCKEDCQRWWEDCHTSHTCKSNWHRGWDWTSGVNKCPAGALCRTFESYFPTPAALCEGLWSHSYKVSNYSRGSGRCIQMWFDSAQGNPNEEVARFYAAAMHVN

CN1c2c(nc(N)[nH]c2=O)NC[C@@H]1CNc1ccc(C(=O)N[C@@H](CCC(=O)O)C(=O)O)cc1 [6S 5-methyltetrahydrofolate]
Kd [1]: 1 nM
Kd [2]: 55 nM

CCCc1cc(C(=O)N[C@H](Cc2ccc(-c3cccc(OC(F)(F)F)c3)nc2)C(=O)N[C@@H]2CCNC2)sc1C [AZ82]
centrosome declustering [3]: causes centrosome declustering
Ki [4]: 43 nM

NCCO [Etn, Monoethanolamine]
oxygen consumption rate (OCR) [5]: decreased OCR
mitochondrial morphology (TEM) ([6]; 40 mg/kg Etn-treated tumors versus controls): elongated mitochondria with highly degraded matrices
levels of PE, PS, PC and SM lipids ([6]; Etn-treated tumors, LC/MS-MS): increased
inhibition of proliferation ([7]; breast, ovary, colon and pancreas cell lines): inhibited proliferation in all the cell lines tested
glucose content [8]: significantly reduced
glutamine content [8]: significantly reduced
glucose content [9]: significantly reduced
glutamine content [9]: significantly reduced
annexin-V positive apoptotic cells [10]: increased the number of annexin-V positive apoptotic cells
GI tract stability [11]: better GI tract stability
body weight ([12]; 40 mg/kg Etn, oral, over 4 weeks): no change in body weight
reduction in tumor volume [12, 22]: ~67%
reduction in tumor weight [12, 22]: ~55%
intratumoral Etn ([12]; after 4 weeks of Etn treatment): no significant change
intratumoral PhosE level versus controls ([12]; after 4 weeks of Etn treatment): ~38%
tumor lysate markers (p53, p21, Bax, pBcl2, c-PARP, Bim, Bid) ([13]; 40 mg/kg Etn): upregulation of p53, p21, Bax, pBcl2, c-PARP, Bim and Bid
Ki67 and c-PARP expression (IHC) in tumors ([13]; treated versus control tumors): marked decrease in Ki67 expression and increase in c-PARP expression
reduction of viability, prostate cancer lines versus normal prostate cells [14]: more effective in reducing viability of prostate cancer lines
inhibition of PC-3 cell proliferation [15]: more effective
HIF1-a expression [16]: strongly downregulated
decrease in colony numbers [17]: ~97%
intracellular PhosE levels [18]: more pronounced
CYP-related drug-drug interaction liability [19]: lacked CYP-related drug-drug interaction liability
antiproliferative activity in presence of CK inhibitor [20]: significantly attenuated
conversion of Etn into PhosE in presence of CK inhibitor [20]: reduced conversion of Etn into PhosE
apoptosis markers (c-PARP, Bim, Bcl-2) [21]: increased levels of proapoptotic markers such as c-PARP and Bim, and decreased antiapoptotic molecules such as Bcl-2
cell cycle markers (pRb, Cdk4, Cdk2, p21) [21]: downregulated pRb, Cdk4, and Cdk2, and upregulated p21

NCCOP(=O)(O)O [PhosE, phosphoethanolamine, reference compound]
inhibition of proliferation and colony formation ([7]; up to 100 mg/ml, data not shown): ineffective
inhibition of tumor growth compared with Etn ([12]; orally delivered formulations): less effective than Etn
decrease in colony numbers [17]: ineffective in decreasing colony numbers
intracellular PhosE levels [18]: increased intracellular PhosE levels
